Experimental findings from patent US12528784B2, “Alkynyl-(heteroaryl)-carboxamide HCN1 inhibitors” (Hoffmann-La Roche Inc., priority 2019, dated 2026) are described below.

One assay addresses T1, HCN1 (Homo sapiens, UniProt O60741).
T1 construct: expressed in transfected cells
T1 sequence (O60741 1-890): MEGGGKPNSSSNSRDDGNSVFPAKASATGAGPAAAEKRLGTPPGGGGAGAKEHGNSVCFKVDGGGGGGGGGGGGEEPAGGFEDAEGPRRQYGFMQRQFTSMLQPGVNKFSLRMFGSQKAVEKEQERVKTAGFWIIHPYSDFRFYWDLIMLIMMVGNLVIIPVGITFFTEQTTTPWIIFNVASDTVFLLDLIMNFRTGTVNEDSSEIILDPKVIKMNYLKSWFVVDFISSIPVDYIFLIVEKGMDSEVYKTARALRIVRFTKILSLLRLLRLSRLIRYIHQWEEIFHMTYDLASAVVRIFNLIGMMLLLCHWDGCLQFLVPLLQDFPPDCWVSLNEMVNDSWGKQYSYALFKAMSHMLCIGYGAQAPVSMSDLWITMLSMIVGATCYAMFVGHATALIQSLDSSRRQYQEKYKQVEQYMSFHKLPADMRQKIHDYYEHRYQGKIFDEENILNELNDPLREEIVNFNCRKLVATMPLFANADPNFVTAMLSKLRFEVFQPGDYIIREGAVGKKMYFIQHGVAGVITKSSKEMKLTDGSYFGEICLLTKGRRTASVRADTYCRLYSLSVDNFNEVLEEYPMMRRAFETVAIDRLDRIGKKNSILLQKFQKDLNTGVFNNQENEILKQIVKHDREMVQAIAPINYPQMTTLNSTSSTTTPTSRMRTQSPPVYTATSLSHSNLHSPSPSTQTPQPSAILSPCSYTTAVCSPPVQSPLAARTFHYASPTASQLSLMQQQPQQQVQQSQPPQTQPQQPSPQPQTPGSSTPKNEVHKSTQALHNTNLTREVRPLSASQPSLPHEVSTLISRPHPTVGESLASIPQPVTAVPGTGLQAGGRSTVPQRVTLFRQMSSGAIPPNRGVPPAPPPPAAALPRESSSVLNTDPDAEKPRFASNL
As to the kind of experiment: HCN1 automated patch clamp current inhibition assay (Ionworks Barracuda). The class given is cell-based. The conditions noted are these: HEK-293 cells stably expressing HCN1; current inhibition during a hyperpolarizing pulse of -100 mV. (In general: Patch clamp records ionic current or voltage across a cell membrane.)

The target of the next assay is T2, HCN4 (Homo sapiens, UniProt Q9Y3Q4).
T2 construct: expressed in transfected cells
T2 sequence (Q9Y3Q4 1-1203): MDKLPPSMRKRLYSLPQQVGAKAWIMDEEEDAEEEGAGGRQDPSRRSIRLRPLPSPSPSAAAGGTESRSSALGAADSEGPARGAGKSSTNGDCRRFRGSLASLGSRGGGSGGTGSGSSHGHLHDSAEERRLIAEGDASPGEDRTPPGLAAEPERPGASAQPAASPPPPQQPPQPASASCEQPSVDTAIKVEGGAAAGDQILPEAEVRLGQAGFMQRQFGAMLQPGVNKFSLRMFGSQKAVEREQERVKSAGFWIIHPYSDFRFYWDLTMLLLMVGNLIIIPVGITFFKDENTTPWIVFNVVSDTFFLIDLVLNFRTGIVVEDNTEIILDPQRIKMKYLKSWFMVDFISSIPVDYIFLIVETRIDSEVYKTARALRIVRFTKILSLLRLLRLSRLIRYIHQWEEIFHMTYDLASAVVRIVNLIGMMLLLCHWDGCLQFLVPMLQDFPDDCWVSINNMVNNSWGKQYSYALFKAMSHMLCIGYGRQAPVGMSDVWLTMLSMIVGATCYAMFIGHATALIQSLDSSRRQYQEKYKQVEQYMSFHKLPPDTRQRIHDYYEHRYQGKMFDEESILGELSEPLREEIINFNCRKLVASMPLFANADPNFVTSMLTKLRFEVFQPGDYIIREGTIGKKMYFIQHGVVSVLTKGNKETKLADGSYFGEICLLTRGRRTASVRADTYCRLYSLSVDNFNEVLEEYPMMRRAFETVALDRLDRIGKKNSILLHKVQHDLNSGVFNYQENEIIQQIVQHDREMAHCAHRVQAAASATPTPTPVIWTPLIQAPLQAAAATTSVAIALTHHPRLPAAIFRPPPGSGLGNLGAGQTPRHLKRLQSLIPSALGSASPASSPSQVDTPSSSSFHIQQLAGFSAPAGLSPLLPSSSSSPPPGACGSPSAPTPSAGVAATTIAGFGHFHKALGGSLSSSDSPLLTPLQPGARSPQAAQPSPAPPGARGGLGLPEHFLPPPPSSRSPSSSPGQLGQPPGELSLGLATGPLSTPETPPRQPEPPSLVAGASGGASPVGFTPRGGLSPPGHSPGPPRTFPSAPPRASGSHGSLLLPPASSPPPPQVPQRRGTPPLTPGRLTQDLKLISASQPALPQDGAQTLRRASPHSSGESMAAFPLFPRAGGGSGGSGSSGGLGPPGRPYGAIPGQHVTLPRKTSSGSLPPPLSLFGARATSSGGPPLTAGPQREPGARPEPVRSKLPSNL
As to the kind of experiment: HCN4 automated patch clamp current inhibition assay (Ionworks Barracuda). Type of assay: cell-based. The conditions noted are these: HEK-293 cells stably expressing HCN4; current inhibition during a hyperpolarizing pulse of -100 mV.

One may read the IC50 as the concentration at which inhibition is half-maximal. Read a high IC50 as lower potency. For `Cc1ccc(-n2c(C(N)=O)nc(C#Cc3ccnc(Cl)c3C)c2C)cn1` [Example 1, 4-((2-Chloro-3-methylpyridin-4-yl)ethynyl)-5-methyl-1-(6-methylpyridin-3-yl)-1H-imidazole-2-carboxamide], the values for the IC50 on HCN1 and against HCN4 were 159 nM and more than 40000 nM, respectively.
Taken in the same sequence, the figures for `Cc1ccc(-n2c(C(N)=O)nc(C#Cc3ccnc(Cl)c3F)c2C)cn1` [Example 2, 4-((2-Chloro-3-fluoropyridin-4-yl)ethynyl)-5-methyl-1-(6-methylpyridin-3-yl)-1H-imidazole-2-carboxamide] were 173 nM and more than 40000 nM.
Turning to `Cc1ccc(-n2c(C(N)=O)nc(C#Cc3csc(Cl)c3)c2C)cn1` [Example 3, 4-[2-(5-Chlorothiophen-3-yl)ethynyl]-5-methyl-1-(6-methylpyridin-3-yl)imidazole-2-carboxamide], the IC50 is 100 nM against HCN1 and more than 40000 nM at HCN4.
As to `Cc1ccc(-n2c(C(N)=O)nc(C#Cc3cccc(Cl)c3)c2C)cn1` [Example 4, 4-[2-(3-Chlorophenyl)ethynyl]-5-methyl-1-(6-methyl-3-pyridyl)imidazole-2-carboxamide], the values for the IC50 on HCN1 and on HCN4 were 225 nM and more than 40000 nM, respectively.
On to `Cc1ccc(-n2c(C(N)=O)nc(C#Cc3cccc(C#N)c3)c2C)cn1` [Example 5, 4-((3-Cyanophenyl)ethynyl)-5-methyl-1-(6-methylpyridin-3-yl)-1H-imidazole-2-carboxamide], for which the IC50 was 240 nM on HCN1 and more than 40000 nM against HCN4.
Regarding `Cc1ccc(-n2c(C(N)=O)nc(C#Cc3ccnc(Cl)c3)c2C)cn1` [Example 6, 4-(2-Chloro-pyridin-4-ylethynyl)-5-methyl-1-(6-methyl-pyridin-3-yl)-1H-imidazole-2-carboxylic Acid Amide], the IC50 at HCN1 is 260 nM; at HCN4, more than 40000 nM.
Taken in the same sequence, the figures for `COc1cccc(C#Cc2nc(C(N)=O)n(-c3ccc(C)nc3)c2C)c1` [Example 8, 4-((3-Methoxyphenyl)ethynyl)-5-methyl-1-(6-methylpyridin-3-yl)-1H-imidazole-2-carboxamide] were 460 nM and more than 40000 nM.
Taken in the same sequence, the figures for `Cc1cccc(C#Cc2nc(C(N)=O)n(-c3ccc(C)nc3)c2C)c1` [Example 10, 5-Methyl-1-(6-methylpyridin-3-yl)-4-(m-tolylethynyl)-1H-imidazole-2-carboxamide] were 579 nM and more than 40000 nM.
Taken in the same sequence, the figures for `Cc1cnc(-n2c(C(N)=O)nc(C#Cc3ccnc(Cl)c3C)c2C)cn1` [Example 23, 4-[2-(2-Chloro-3-methyl-4-pyridyl)ethynyl]-5-methyl-1-(5-methylpyrazin-2-yl)imidazole-2-carboxamide] were 303 nM and more than 40000 nM.
On to `Cc1c(C#Cc2nc(C(N)=O)n(-c3ccc(Cl)nc3)c2C)ccnc1Cl` [Example 26, 4-[2-(2-Chloro-3-methyl-4-pyridyl)ethynyl]-1-(6-chloro-3-pyridyl)-5-methyl-imidazole-2-carboxamide], for which the IC50 is 241 nM against HCN1 and more than 40000 nM against HCN4.
Taken in the same sequence, the figures for `COc1ccc(-n2c(C(N)=O)nc(C#Cc3ccnc(Cl)c3C)c2C)cn1` [Example 27, 4-[2-(2-Chloro-3-methyl-4-pyridyl)ethynyl]-1-(6-methoxy-3-pyridyl)-5-methyl-imidazole-2-carboxamide] were 51 nM and more than 40000 nM.
Taken in the same sequence, the figures for `Cc1ccc(-n2c(C(N)=O)nc(C#Cc3ccnc(Cl)c3C)c2C)nc1` [Example 28, 4-[2-(2-Chloro-3-methyl-4-pyridyl)ethynyl]-5-methyl-1-(5-methyl-2-pyridyl)imidazole-2-carboxamide] were 192 nM and more than 40000 nM.
On to `Cc1ccc(-n2c(C(N)=O)cc(C#Cc3ccnc(Cl)c3)c2C)cn1` [Example 31, 4-[2-(2-Chloro-4-pyridyl)ethynyl]-5-methyl-1-(6-methyl-3-pyridyl)pyrrole-2-carboxamide], for which the IC50 was 231 nM against HCN1 and more than 40000 nM against HCN4.
Turning to `Cc1ccc(-c2c(C(N)=O)nc(C#Cc3ccnc(Cl)c3)n2C)cn1` [Example 32, 2-[2-(2-Chloro-4-pyridyl)ethynyl]-1-methyl-5-(6-methyl-3-pyridyl)imidazole-4-carboxamide], the IC50 at HCN1 was 429 nM; against HCN4, more than 40000 nM.
Taken in the same sequence, the figures for `Cc1ccc(-n2c(C(N)=O)nc(C#Cc3ccnc(Cl)c3)c2C)cc1` [Example 38, 4-[2-(2-Chloro-4-pyridyl)ethynyl]-5-methyl-1-(p-tolyl)imidazole-2-carboxamide] were 232 nM and more than 40000 nM.
As for `Cc1c(C#Cc2ccnc(Cl)c2)nc(C(N)=O)n1-c1ccc(Cl)cc1` [Example 39, 1-(4-Chlorophenyl)-4-((2-chloropyridin-4-yl)ethynyl)-5-methyl-1H-imidazole-2-carboxamide], the IC50 at HCN1 is 383 nM; at HCN4 it was more than 40000 nM.
Consider `NC(=O)c1nc(C#Cc2ccnc(Cl)c2)cn1-c1ccc(F)cc1` [Example 42, 4-(2-Chloro-pyridin-4-ylethynyl)-1-(4-fluoro-phenyl)-1H-imidazole-2-carboxylic Acid Amide], for which the IC50 against HCN1 is 2520 nM; against HCN4 it was more than 40000 nM.
